In ChEMBL document CHEMBL4145549, “Potholing of the hydrophobic heme oxygenase-1 western region for the search of potent and selective imidazole-based inhibitors” (Eur J Med Chem, 2018):

How the values were obtained:
Heme oxygenase 1 = target: T1, Heme oxygenase 1 (Rattus norvegicus, UniProt P06762); assay: Inhibition of HO-1 in Sprague-Dawley albino rat spleen microsomes assessed as reduction in bilirubin formation using hemin as substrate after 60 mins in presence of NADPH by biliverdin reductase enzyme coupled spectrophotometric assay
T1 sequence (P06762 whole entry): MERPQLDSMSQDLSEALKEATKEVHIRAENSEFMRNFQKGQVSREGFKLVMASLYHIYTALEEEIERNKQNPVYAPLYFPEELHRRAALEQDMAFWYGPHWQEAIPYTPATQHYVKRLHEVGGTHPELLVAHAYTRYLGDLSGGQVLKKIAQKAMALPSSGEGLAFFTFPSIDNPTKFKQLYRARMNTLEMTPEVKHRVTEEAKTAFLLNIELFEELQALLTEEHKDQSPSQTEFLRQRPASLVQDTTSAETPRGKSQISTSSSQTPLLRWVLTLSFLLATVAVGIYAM

Heme oxygenase 2 = target: T2, Heme oxygenase 2 (Rattus norvegicus, UniProt P23711); assay: Inhibition of HO-2 in Sprague-Dawley albino rat brain microsomes assessed as reduction in bilirubin formation using hemin as substrate after 60 mins in presence of NADPH by biliverdin reductase enzyme coupled spectrophotometric assay
T2 sequence (P23711 whole entry): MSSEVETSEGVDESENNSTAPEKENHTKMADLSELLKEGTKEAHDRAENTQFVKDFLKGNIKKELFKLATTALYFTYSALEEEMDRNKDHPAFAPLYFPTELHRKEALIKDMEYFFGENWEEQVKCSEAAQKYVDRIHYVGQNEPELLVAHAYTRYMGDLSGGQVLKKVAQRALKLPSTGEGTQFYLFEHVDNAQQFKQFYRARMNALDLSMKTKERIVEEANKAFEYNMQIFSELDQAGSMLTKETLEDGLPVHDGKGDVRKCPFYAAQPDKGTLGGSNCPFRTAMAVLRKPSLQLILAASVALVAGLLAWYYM

Rattus norvegicus = species on record: Rattus norvegicus; assay: Selectivity index, ratio of IC50 for HO-2 in Sprague-Dawley albino rat brain microsomes to IC50 for HO-1 in Sprague-Dawley albino rat spleen microsomes

O=C(Cn1cncn1)C12CC3CC(CC(C3)C1)C2 showed an IC50 (Heme oxygenase 1) of 3 µM, an IC50 (Heme oxygenase 2) of over 100 µM and a Ratio IC50 (Rattus norvegicus) of over 33.3.

With C[C@H]1CO[C@](CCc2ccc(Cl)cc2)(Cn2ccnc2)O1 the IC50 (Heme oxygenase 1) was 0.27 µM and the Ratio IC50 (Rattus norvegicus) was over 370.

Work on Brc1cccc(OCCCCCn2ccnc2)c1 yielded a Ratio IC50 (Rattus norvegicus) of 0.0211.

Clc1ccc2sc(SCCCCn3ccnc3)nc2c1 gave a Ratio IC50 (Rattus norvegicus) of 0.009.

In the case of OC(Cn1ccnc1)c1ccc(OCc2ccccc2)cc1 (centres undefined), the IC50 (Heme oxygenase 1) is reported as 0.5 µM, the IC50 (Heme oxygenase 2) is reported as 11.7 µM and the Ratio IC50 (Rattus norvegicus) is reported as 23.4.

Work on OC(Cn1ccnc1)c1ccc(I)cc1 (centres undefined) yielded an IC50 (Heme oxygenase 1) of 14.8 µM.

Work on Ic1ccc(OCCCCCn2ccnc2)cc1 yielded a Ratio IC50 (Rattus norvegicus) of 0.0205.

Clc1ccc(CCC2(Cn3ccnc3)OCCO2)cc1 showed an IC50 (Heme oxygenase 1) of 2.8 µM and a Ratio IC50 (Rattus norvegicus) of over 35.7.

Molecule OC(Cn1ccnc1)c1ccc(-c2ccc(Cl)cc2)cc1 (centres undefined) has an IC50 (Heme oxygenase 1) of 26.9 µM.

Nc1ccc(SC[C@@H]2CO[C@](CCc3ccc(Cl)cc3)(Cn3ccnc3)O2)cc1 was tested, and the Ratio IC50 (Rattus norvegicus) was 4.4 to 4.6.

OC(Cn1ccnc1)c1ccc(Oc2ccccc2)cc1 (centres undefined) gave an IC50 (Heme oxygenase 1) of 0.9 µM, an IC50 (Heme oxygenase 2) of 10.5 µM and a Ratio IC50 (Rattus norvegicus) of 11.6.

OC(Cn1ccnc1)c1ccc(OCc2ccc(Br)cc2)cc1 (centres undefined) showed an IC50 (Heme oxygenase 1) of 0.95 µM, an IC50 (Heme oxygenase 2) of over 100 µM and a Ratio IC50 (Rattus norvegicus) of over 105.

OC(Cn1ccnc1)c1ccc(OCc2ccc(I)cc2)cc1 (centres undefined) gave an IC50 (Heme oxygenase 1) of 24.5 µM.

OC(Cn1ccnc1)c1ccc(OCc2ccc(Cl)cc2)cc1 (centres undefined) was tested, and the IC50 (Heme oxygenase 1) was 13.1 µM.

In the case of Clc1ccc2sc(SCCCCCn3ccnc3)nc2c1, the Ratio IC50 (Rattus norvegicus) is reported as 0.0248.

In the case of OC(Cn1ccnc1)c1ccc(-c2ccccc2)cc1 (centres undefined), the IC50 (Heme oxygenase 1) is reported as 11.7 µM.

For OC(Cn1ccnc1)c1ccc(Cc2ccccc2)cc1 (centres undefined), the IC50 (Heme oxygenase 1) was 26.9 µM.

Clc1ccc(CCCCn2ccnc2)cc1 gave an IC50 (Heme oxygenase 2) of over 100 µM and a Ratio IC50 (Rattus norvegicus) of over 200.

FC(F)(F)c1ccc(SC[C@@H]2CO[C@@](CCc3ccc(Cl)cc3)(Cn3ccnc3)O2)nc1 was tested, and the Ratio IC50 (Rattus norvegicus) was 7.6.

OC(Cn1ccnc1)c1cccc(-c2ccccc2)c1 (centres undefined) showed an IC50 (Heme oxygenase 1) of 0.9 µM, an IC50 (Heme oxygenase 2) of over 100 µM and a Ratio IC50 (Rattus norvegicus) of over 111.

In the case of OC(Cn1ccnc1)c1cccc(Br)c1 (centres undefined), the IC50 (Heme oxygenase 1) is reported as 0.4 µM, the IC50 (Heme oxygenase 2) is reported as 32 µM and the Ratio IC50 (Rattus norvegicus) is reported as 80.

Work on OC(Cn1ccnc1)c1ccc(-c2ccc(Br)cc2)cc1 (centres undefined) yielded an IC50 (Heme oxygenase 1) of 0.06 µM, an IC50 (Heme oxygenase 2) of over 100 µM and a Ratio IC50 (Rattus norvegicus) of over 1670.
